From patent publication US11434195B2, “Compositions and methods for treatment of central nervous system tumors” (UNIVERSITY OF FLORIDA RESEARCH FOUNDATION, INC., priority 2017, dated 2022)
Entries after “also recorded” stand apart in the source; their conditions may differ. Where a name gives a salt, the structure may show the parent alone. Read-outs that look alike come from different tables or passages of the source.

Experiments:
[1] = system: primary human hepatocytes; assay: Survival of primary human hepatocytes; assay type: cell-based; details: up to 50 μM
Experimental: The cell integrity and structural architecture were not altered following incubation with AIPs for a week (see FIG. 11B).

[2] = system: CA1 cancer stem cell-derived carcinoid bodies ('carcinospheres'); assay: Carcinoid sphere model of tumor-initiating glioblastoma stem cells; assay type: cell-based; details: Homo sapiens
Experimental: Human glioblastoma cell lines CA1 (also sometimes referred to as BT73) and L1 are cells are available from the Florida Center for Brain Tumor Research University of Florida Biorepository. Glioma cells (for example CA1, U87MG or L1), are suspended by trituration as single cells and plated at a density of about 25,000 cells/mL in low adhesion plates in Neurobasal® medium containing 1% methylcellulose and growth factors. The cultures are treated with single or repeated doses of AIPs (ranging from 0.1 to 20 […]) or vehicle (control) and maintained for 24 hours, 72 hours and 7 days. The number and size of ‘carcinoid’ spheres are quantitated by inverted phase contrast microscopy, and spheres collected for analysis for determination of survival and growth/proliferation.
This suppression of tumor-initiating glioblastoma multiforme stem/progenitor cells was determined using a ‘carcinoid sphere’ model in serum- and in anchorage-free media. The ability to block cancer stem cell activation and to destroy them is very useful for strategies to prevent glioblastoma recurrence. Here, AIPs blocked completely the activation of tumor-initiating CA1 cells and formation of carcinospheres at ≥2 μM concentrations. […] FIG. 9B is a set of representative photographs of the cells treated as indicated.
With respect to methods, generation of carcinoid spheres from GBM was performed essentially as described previously (Cao et al., Composite fatty acid ether amides suppress growth of liver cancer cells in vitro and in an in vivo allograft mouse model, Cell. Oncol. 36(3):247-257, 2013 and Reinartz et al., Functional Subclone Profiling for Prediction of Treatment-Induced Intratumor Population Shifts and Discovery of Rational Drug Combinations in Human Glioblastoma, Clinical Cancer Research: an official journal of the American Association for Cancer Research 23(2):562-574, 2017). […] The number and size of spheres were quantitated by inverted phase contrast microscopy. […]

[3] = system: adherent CA1 human glioblastoma multiforme cells; assay: Viability/proliferation of adherent CA1 glioblastoma cells (MTS); assay type: cell-based; details: for IC50: Homo sapiens
Experimental: In addition, glioma cells were cultured (adherent) in DMEM/F12 medium with 10% FBS to attain about 70% confluency. AIP (ranging from about 1 μM to about 100 μM) was added once or twice as above for 24 hours, 48 hours, or 72 hours and analyzed at these time points for proliferation, cell death and markers.
Ales were screened in patient glioblastoma cells CA1 cells proliferating in adherent cultures. Briefly, cells were cultured in DMEM/F12 medium with 10% FBS to attain about 70% confluency. AIP1, AIP2, or vehicle (control) were added for 24 hours and analyzed for proliferation and survival. […] Cell viability/proliferation was measured by MTS added for additional 2-3 hours (FIG. 10A). Microphotographs of the cells were taken with Hoffman modulation-equipped phase-contrast microscope (FIG. 10B; x20 magnification is shown).

AKT = AKT kinase activity / basal AKT phosphorylation in HUH-7 cells; assay type: cell-based, human; details: proliferating HUH-7 cells, 10 μM
[4] = Tissue accumulation after intraperitoneal injection; assay type: in vivo; details: mice, hydrochloride
Experimental: To assure brain bioavailability of the inventive compounds, time-dependent brain, liver and […] AIP accumulation was measured after intraperitoneal injection of 2.0 mg AIP2. Mice were sacrificed at specific times following injection. Tissues (blood, brain and liver) were taken, and the lipids extracted, loaded on silica-gel column, washed with diethyl ether, and eluted with 10% ethyl acetate in hexane. The eluates were further purified using gradient HPLC on a C8 reverse phase column and the AIP-corresponding fraction was collected and quantitatively analyzed by […], coupled with electrospray ionization-mass-spectroscopy using internal AIP standard.

CCCCCCCC/C=C\CCCCCCCCOCC(O)CNC(C)C (stereo not shown) [AIP2, Octadecenyloxy-3-isopropylamine-propan-2-ol hydrochloride]
Survival of primary human hepatocytes [1]: did not reduce survival
IC50 ([2]; read-out: IC50, block of development of brain tumor-initiating stem cells): 1.1 µM
IC50 ([2]; read-out: IC50, formation and growth of CA1 cancer stem cell-derived carcinoid bodies): 1.1 µM
IC50 ([2]; read-out: IC50, inhibition of brain tumor-initiating cancer stem cells): 1.1 µM
Effect on adherent CA1 glioblastoma cells ([3]; 20 μM, hydrochloride): complete shutdown of metabolic activity; also recorded: destroyed all cancer cells
IC50 ([3]; read-out: IC50, growth and survival of human malignant glioblastoma cells (CA1)): 6.9 µM
IC50 ([3]; read-out: IC50, proliferating glioblastoma cells): 7.1 µM
Basal AKT phosphorylation (AKT): blocked basal AKT phosphorylation
Blood-brain barrier penetration ([4]; 24 hours after intraperitoneal injection): able to cross the blood-brain barrier; also recorded: significant blood-brain-barrier (BBB) penetration
Tissue accumulation of non-metabolized compound ([4]; intraperitoneal injection of 2 mg, up to 24 hours): did accumulate in brain tissue; also recorded: accumulated in brain and liver in a time-dependent fashion
